We go through 4 compounds from publication PMC3591530 (Molecular Imaging and Biology, 2012).

As usually defined, the IC50 is the concentration that inhibits the measured activity by half. A higher IC50 goes with weaker potency in that assay. For orientation: half-life means the time in which the quantity being followed falls by half. For orientation: tissue uptake means the percentage of the injected dose found per gram of tissue.

The subject of one data set is BxPC3 cells. In kind it is binding, human. The settings on record: 24 h. The method, then: (§1) Three hundred thousand BxPC3, MCF7, PDGFRβ-tr-HEK, CaIX-tr-HEK, or HEK293wt cells were cultivated in six-well plates at 37°C for 24 h. Cells were blocked with RPMI 1640 containing 1% milk powder and the medium was replaced with 1 ml fresh medium (without FCS) containing 0.5–1.5 × 10^6 cpm ^125I-labeled peptide. After incubation at 37°C for various time periods (10 min to 6 h), the medium was removed and the cells were washed with PBS. Subsequently, cell lysis was performed with 0.5 ml NaOH 0.3 M and the bound radioactivity was measured with a γ-counter and calculated as percentage applied dose per 10^6 cells. Specific binding was determined through co-incubation of the radioligand with the unlabeled PDGFR-P1 peptide at various concentrations (10^−4 to 10^−10 M). A dodecapeptide identified with phage display by panning against the extracellular domain of human carbonic anhydrase IX (CaIX-P1) as well as a derivative of a dodecapeptide identified with phage display on prostate carcinoma cells (DUP-1–9) were used as negative control competitors.

The target in data set [1] is T1, extracellular domain of human PDGFRβ (Homo sapiens, UniProt P09619).
T1 construct: The extracellular domain of PDGFRβ was recombinantly synthesized using the Flp-In system; Fc (Fcγ from pSEC-EGP-2-Fcγ vector) (C); made in house; host or cells: Flp-In-293 human embryonic kidney cells
T1 sequence (P09619 33-532 limits assumed): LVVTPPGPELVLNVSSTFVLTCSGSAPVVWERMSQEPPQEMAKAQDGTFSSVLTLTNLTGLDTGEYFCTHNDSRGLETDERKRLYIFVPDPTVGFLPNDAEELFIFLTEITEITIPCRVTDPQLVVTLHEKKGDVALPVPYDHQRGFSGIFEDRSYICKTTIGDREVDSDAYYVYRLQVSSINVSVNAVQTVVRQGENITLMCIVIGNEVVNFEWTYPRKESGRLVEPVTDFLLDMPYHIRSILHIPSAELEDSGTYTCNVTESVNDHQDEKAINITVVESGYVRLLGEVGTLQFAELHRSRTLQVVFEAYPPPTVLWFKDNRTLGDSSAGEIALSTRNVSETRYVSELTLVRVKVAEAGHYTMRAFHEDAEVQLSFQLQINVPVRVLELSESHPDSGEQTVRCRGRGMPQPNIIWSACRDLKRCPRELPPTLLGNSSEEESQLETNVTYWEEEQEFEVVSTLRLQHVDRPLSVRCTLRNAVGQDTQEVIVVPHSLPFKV
In kind it is binding. The following applies: pH 7.4. The method, then:
Binding of ^125I-labeled PDGFR-P1 was investigated on immobilized extracellular domain of human PDGFRβ, EGFR, and FGFR. The target proteins were incubated at a concentration of 25 nM in 96-well Maxisorp^TM plates (Nunc GmbH & Co. KG, Germany) for 24 h and the plates were washed thrice with 100 μl PBS pH 7.4. ^125I-labeled PDGFR-P1 was incubated with the target in 100 μl PBS pH 7.4 for 60 min. The unbound activity was removed by washing with 300 μl ice-cold PBS pH 7.4. Bound radioligand was determined through degradation with 100 μl NaOH 0.3 M and radioactivity measurement. Radioligand binding was calculated as percentage applied dose.

The subject of another data set is PDGFR-tr-HEK cells. In words: In vitro binding kinetics on PDGFRβ-transfected HEK293 cells. Also noted: species or system human. The settings on record: kinetic studies, vs HEK293wt and CaIX-tr-HEK cells, 37°C, serum-free medium, p < 0.05. The method, then:
as §1

The nature of a further data set: Stability in human serum. Type of data set: in vitro ADME. The following applies: 37°C, HPLC analysis. The method, then: The stability of PDGFR-P1 was investigated in human serum. ^125I-labeled peptide was incubated at 37°C in human serum. At time points varying from 5 min to 20 h, aliquots were taken, mixed with equal volume acetonitrile, to precipitate serum proteins and centrifuged for 5 min at 13,000 rpm. Serum degradation products were determined by HPLC analysis of the supernatant.

For the next data set, the system named is BxPC3 tumors. In words: in vivo. Set-up: species or system Balb/c nu/nu mice. The following applies: female, Balb/c nu/nu, mouse, iv, 1 MBq, 0.25 h. The method, then:
(§2) Organ distribution studies were carried out in 9-week-old female Balb/c nu/nu mice (Charles River WIGA), carrying subcutaneously transplanted human pancreatic cancer BxPC3 tumors. Tumor implantation was performed through injection of a cell suspension (4 × 10^6 cells in OPTI-MEM) (Gibco, Invitrogen Life Technologies) into the mouse trunk. After the tumors were grown to a size of approximately 1.0 cm^3, 1 MBq of ^131I-labeled PDGFR-P1 was injected into the tail vein, and at 15 min p.i. the animals were euthanized. Tumor, blood, and healthy tissues were removed, weighed, and measured with a γ-counter (LB […]; Berthold Technologies). Organ uptake calculation was performed as percentage injected dose per gram tissue (% ID/g). To avoid bias due to blood background radioactivity, uptake in blood-free organs was determined with perfusion experiments. Within these experiments, blood was removed through a catheter in the ascending aorta of the anesthesized animal and perfusion with approximately 25 ml 0.9% NaCl was performed via a cut in the animal liver. After perfusion, samples of tumor and organs were removed and measured as described. All animal experiments were carried out in conformity with the German and European laws for animal protection.

The nature of another data set: in vivo. Also noted: species or system Balb/c nu/nu mice. The following applies: female, Balb/c nu/nu, mouse, iv, 1 MBq, total radioactivity; for tissue to tissue ratio at 0.25 h: Tumor-to-organ ratio. The method, then:
as §2

Another data set in a line: human serum. The following applies: 37°C, up to 20 h.

Where a SMILES comes first, the peptide text is derived from it. [ ]: non-standard residue; d: D form. Tyr(3-I) = N[C@@H](Cc1ccc(O)c(I)c1)C(=O)O

In turn, `CC[C@H](C)[C@H](N)C(=O)N1CCC[C@H]1C(=O)N[C@@H](CC(C)C)C(=O)N1CCC[C@H]1C(=O)N1CCC[C@H]1C(=O)N1CCC[C@H]1C(=O)N[C@@H](CO)C(=O)N[C@@H](CCCNC(=N)N)C(=O)N1CCC[C@H]1C(=O)N[C@@H](Cc1ccccc1)C(=O)N[C@@H](Cc1ccccc1)C(=O)N[C@@H](CCCCN)C(=O)N[C@@H](Cc1ccc(O)cc1)C(N)=O` [PDGFR-P1] (H-IPLPPPSRPFFKY-NH2) gave an IC50 in the data set with BxPC3 cells of 1.4 µM. The “Binding of the radioligand (percentage applied dose)” value in data set [1] is reported as “about 18%”.
For the compound `CC[C@H](C)[C@H](N)C(=O)N1CCC[C@H]1C(=O)N[C@@H](CC(C)C)C(=O)N1CCC[C@H]1C(=O)N1CCC[C@H]1C(=O)N1CCC[C@H]1C(=O)N[C@@H](CO)C(=O)N[C@@H](CCCNC(=N)N)C(=O)N1CCC[C@H]1C(=O)N[C@@H](Cc1ccccc1)C(=O)N[C@@H](Cc1ccccc1)C(=O)N[C@@H](CCCCN)C(=O)N[C@@H](Cc1ccc(O)c(I)c1)C(N)=O` [^125I-labeled PDGFR-P1] (H-IPLPPPSRPFFK[Tyr(3-I)]-NH2; N-terminus assumed), in the data set with PDGFR-tr-HEK cells, the “Binding on PDGFR-tr-HEK cells compared to negative controls” value was “significantly increased binding”. Further, the Degradation product analysis result in “Stability in human serum” is listed as “cleavage of the C-terminal tyrosine over time”. Moreover, the half-life in “Stability in human serum” (aliquots 5 min to 20 h, acetonitrile precipitation) was determined as 4 min.
With `CC[C@H](C)[C@H](N)C(=O)N1CCC[C@H]1C(=O)N[C@@H](CC(C)C)C(=O)N1CCC[C@H]1C(=O)N1CCC[C@H]1C(=O)N1CCC[C@H]1C(=O)N[C@@H](CO)C(=O)N[C@@H](CCCNC(=N)N)C(=O)N1CCC[C@H]1C(=O)N[C@@H](Cc1ccccc1)C(=O)N[C@@H](Cc1ccccc1)C(=O)N[C@@H](CCCCN)C(=O)N[C@@H](Cc1ccc(O)c(I)c1)C(N)=O` [^131I-labeled PDGFR-P1] (H-IPLPPPSRPFFK[Tyr(3-I)]-NH2; N-terminus assumed), in the data set on BxPC3 tumors, the “Tumor-to-organ ratio, Brain” value is recorded as 9.083. In the data set on BxPC3 tumors, the “Tumor-to-organ ratio, Intestinum” value amounted to 1.321. The “Tumor-to-organ ratio, Kidney” value with BxPC3 tumors was 0.379. Moreover, the “Tumor-to-organ ratio, Muscle” value in the data set on BxPC3 tumors is listed as 2.530. Further, the “Tumor-to-organ ratio, Spleen” value in the data set with BxPC3 tumors is listed as 1.601. In addition, the values for the tissue uptake at 0.25 h in “in vivo” (Activity concentration in blood), in the data set “in vivo” (Activity concentration in kidney) and in “in vivo” (Tumor accumulation) were 5.4 %ID/g, 10.6 %ID/g and 3.2 %ID/g, respectively. For the same compound, the tissue to tissue ratio at 0.25 h worked out at 8.7 in the data set “in vivo” (Brain); 1.43 in “in vivo” (Intestinum); 0.299 in the data set “in vivo” (Kidney); 2.15 in “in vivo” (Muscle); 1.42 in the data set “in vivo” (Spleen).
With IPLPPPSRPFFKY-NH2, in “human serum”, the cleaved bond entry is recorded as “K-Y” and the fragment found result is “Y-OH”.
